Test results reported in publication PMC11823630, “In vitro potentiation of tetracyclines in Pseudomonas aeruginosa by RW01, a new cyclic peptide” (Antimicrobial Agents and Chemotherapy, 2024).
≈ marks a conversion by molar mass, not a printed value.

Test system: PAO1 mutant MIN16_2, nalC(aa9∆4), pilQ(nt46∆1)
Experiment: MIC, Sensititre custom plate
Assay type: cell-based
Settings: Pseudomonas aeruginosa, PAO1, read-out: MIC, Sensititre
Procedure: (§1) Selection of resistant mutants was performed for minocycline with and without RW01 in three independent replicates for wild-type P. aeruginosa reference strain PAO1. Tubes containing Mueller-Hinton broth (MHB) were inoculated and incubated for 24 h at 37°C. Afterward, 1/100 dilution of each tube was incubated at 37°C in MHB to late-exponential growth phase, measured by spectrophotometry at OD600. […] A control plate without antibiotic was included as inoculum control. After overnight incubation, colony counting of each treatment was performed to analyze the generation of resistant population. The mutant prevention concentration (MPC) was defined as the lowest concentration of antibiotic yielding no growth of resistant mutants. Selected mutants were checked for susceptibility profiles by using a Sensititre custom plate (Thermo Fisher Scientific, Massachusetts, USA) for Gram-negative bacteria, following the manufacturer’s instructions.

Structure (SMILES) | MIC
CC(C)(O/N=C(\C(=O)N[C@@H]1C(=O)N2C(C(=O)[O-])=C(C[n+]3ccccc3)CS[C@H]12)c1csc(N)n1)C(=O)O [Ceftazidime, ceftazidime] | 4 µg/mL (≈ 7.32 µM)

Test system: PAO1 mutant MIN1_RW01_1, pmrB(Y98N)
Experiment: MIC, Sensititre custom plate
Assay type: cell-based
Settings: Pseudomonas aeruginosa, PAO1, read-out: MIC, Sensititre
Procedure: as §1

Structure (SMILES) | MIC
CC(C)(O/N=C(\C(=O)N[C@@H]1C(=O)N2C(C(=O)[O-])=C(C[n+]3ccccc3)CS[C@H]12)c1csc(N)n1)C(=O)O [Ceftazidime, ceftazidime] | ≤ 1 µg/mL

Test system: P. aeruginosa PAO1, WT
Experiment: MIC, Sensititre custom plate
Assay type: cell-based
Settings: Pseudomonas aeruginosa, PAO1, read-out: MIC, Sensititre
Procedure: as §1

Structure (SMILES) | MIC
CC(C)(O/N=C(\C(=O)N[C@@H]1C(=O)N2C(C(=O)[O-])=C(C[n+]3ccccc3)CS[C@H]12)c1csc(N)n1)C(=O)O [Ceftazidime, ceftazidime] | 1 to 2 µg/mL (≈ 1.83 to 3.66 µM)

Test system: PAO1 mutant MIN4_RW01_4, pmrB(Y98N)
Experiment: MIC, Sensititre custom plate
Assay type: cell-based
Settings: Pseudomonas aeruginosa, PAO1, read-out: MIC, Sensititre
Procedure: as §1

Structure (SMILES) | MIC
CC(C)(O/N=C(\C(=O)N[C@@H]1C(=O)N2C(C(=O)[O-])=C(C[n+]3ccccc3)CS[C@H]12)c1csc(N)n1)C(=O)O [Ceftazidime, ceftazidime] | ≤ 1 µg/mL

Test system: PAO1 mutant MIN32_1, mexR(R63H), pilB(N349K), PA0646(V316G)
Experiment: MIC, Sensititre custom plate
Assay type: cell-based
Settings: Pseudomonas aeruginosa, PAO1, read-out: MIC, Sensititre
Procedure: as §1

Structure (SMILES) | MIC
CC(C)(O/N=C(\C(=O)N[C@@H]1C(=O)N2C(C(=O)[O-])=C(C[n+]3ccccc3)CS[C@H]12)c1csc(N)n1)C(=O)O [Ceftazidime, ceftazidime] | 4 µg/mL (≈ 7.32 µM)

Test system: PAO1 mutant MIN4_RW01_3, pmrB(M292T)
Experiment: MIC, Sensititre custom plate
Assay type: cell-based
Settings: Pseudomonas aeruginosa, PAO1, read-out: MIC, Sensititre
Procedure: as §1

Structure (SMILES) | MIC
CC(C)(O/N=C(\C(=O)N[C@@H]1C(=O)N2C(C(=O)[O-])=C(C[n+]3ccccc3)CS[C@H]12)c1csc(N)n1)C(=O)O [Ceftazidime, ceftazidime] | ≤ 1 µg/mL

Test system: PAO1 mutant MIN2_RW01_3, parS(V152A)
Experiment: MIC, Sensititre custom plate
Assay type: cell-based
Settings: Pseudomonas aeruginosa, PAO1, read-out: MIC, Sensititre
Procedure: as §1

Structure (SMILES) | MIC
CC(C)(O/N=C(\C(=O)N[C@@H]1C(=O)N2C(C(=O)[O-])=C(C[n+]3ccccc3)CS[C@H]12)c1csc(N)n1)C(=O)O [Ceftazidime, ceftazidime] | 2 µg/mL (≈ 3.66 µM)

Test system: PAO1 mutant MIN16_3, nfxB(nt79∆14), pilB(N349K)
Experiment: MIC, Sensititre custom plate
Assay type: cell-based
Settings: Pseudomonas aeruginosa, PAO1, read-out: MIC, Sensititre
Procedure: as §1

Structure (SMILES) | MIC
CC(C)(O/N=C(\C(=O)N[C@@H]1C(=O)N2C(C(=O)[O-])=C(C[n+]3ccccc3)CS[C@H]12)c1csc(N)n1)C(=O)O [Ceftazidime, ceftazidime] | 2 µg/mL (≈ 3.66 µM)

Test system: PAO1 mutant MIN1_RW01_3, pmrB(V215L)
Experiment: MIC, Sensititre custom plate
Assay type: cell-based
Settings: Pseudomonas aeruginosa, PAO1, read-out: MIC, Sensititre
Procedure: as §1

Structure (SMILES) | MIC
CC(C)(O/N=C(\C(=O)N[C@@H]1C(=O)N2C(C(=O)[O-])=C(C[n+]3ccccc3)CS[C@H]12)c1csc(N)n1)C(=O)O [Ceftazidime, ceftazidime] | ≤ 1 µg/mL

Test system: PAO1 mutant MIN16_1, nalD(T43P)
Experiment: MIC, Sensititre custom plate
Assay type: cell-based
Settings: Pseudomonas aeruginosa, PAO1, read-out: MIC, Sensititre
Procedure: as §1

Structure (SMILES) | MIC
CC(C)(O/N=C(\C(=O)N[C@@H]1C(=O)N2C(C(=O)[O-])=C(C[n+]3ccccc3)CS[C@H]12)c1csc(N)n1)C(=O)O [Ceftazidime, ceftazidime] | 4 µg/mL (≈ 7.32 µM)

Test system: PAO1 mutant MIN1_RW01_2, mexR(G58E), pilB(G326D), hutC(Y181X)
Experiment: MIC, Sensititre custom plate
Assay type: cell-based
Settings: Pseudomonas aeruginosa, PAO1, read-out: MIC, Sensititre
Procedure: as §1

Structure (SMILES) | MIC
CC(C)(O/N=C(\C(=O)N[C@@H]1C(=O)N2C(C(=O)[O-])=C(C[n+]3ccccc3)CS[C@H]12)c1csc(N)n1)C(=O)O [Ceftazidime, ceftazidime] | 4 µg/mL (≈ 7.32 µM)

Test system: PAO1 mutant MIN2_RW01_4, pmrB(M292T)
Experiment: MIC, Sensititre custom plate
Assay type: cell-based
Settings: Pseudomonas aeruginosa, PAO1, read-out: MIC, Sensititre
Procedure: as §1

Structure (SMILES) | MIC
CC(C)(O/N=C(\C(=O)N[C@@H]1C(=O)N2C(C(=O)[O-])=C(C[n+]3ccccc3)CS[C@H]12)c1csc(N)n1)C(=O)O [Ceftazidime, ceftazidime] | 2 µg/mL (≈ 3.66 µM)

Test system: PAO1 mutant MIN2_RW01_1, pmrB(V215L)
Experiment: MIC, Sensititre custom plate
Assay type: cell-based
Settings: Pseudomonas aeruginosa, PAO1, read-out: MIC, Sensititre
Procedure: as §1

Structure (SMILES) | MIC
CC(C)(O/N=C(\C(=O)N[C@@H]1C(=O)N2C(C(=O)[O-])=C(C[n+]3ccccc3)CS[C@H]12)c1csc(N)n1)C(=O)O [Ceftazidime, ceftazidime] | 2 µg/mL (≈ 3.66 µM)

Test system: PAO1 mutant MIN4_RW01_1, pmrB(R429H)
Experiment: MIC, Sensititre custom plate
Assay type: cell-based
Settings: Pseudomonas aeruginosa, PAO1, read-out: MIC, Sensititre
Procedure: as §1

Structure (SMILES) | MIC
CC(C)(O/N=C(\C(=O)N[C@@H]1C(=O)N2C(C(=O)[O-])=C(C[n+]3ccccc3)CS[C@H]12)c1csc(N)n1)C(=O)O [Ceftazidime, ceftazidime] | 4 µg/mL (≈ 7.32 µM)

Test system: PAO1 mutant MIN2_RW01_2, pmrB(M292T)
Experiment: MIC, Sensititre custom plate
Assay type: cell-based
Settings: Pseudomonas aeruginosa, PAO1, read-out: MIC, Sensititre
Procedure: as §1

Structure (SMILES) | MIC
CC(C)(O/N=C(\C(=O)N[C@@H]1C(=O)N2C(C(=O)[O-])=C(C[n+]3ccccc3)CS[C@H]12)c1csc(N)n1)C(=O)O [Ceftazidime, ceftazidime] | 2 µg/mL (≈ 3.66 µM)

Test system: PAO1 mutant MIN8_3, pilZ(nt18InsT)
Experiment: MIC, Sensititre custom plate
Assay type: cell-based
Settings: Pseudomonas aeruginosa, PAO1, read-out: MIC, Sensititre
Procedure: as §1

Structure (SMILES) | MIC
CC(C)(O/N=C(\C(=O)N[C@@H]1C(=O)N2C(C(=O)[O-])=C(C[n+]3ccccc3)CS[C@H]12)c1csc(N)n1)C(=O)O [Ceftazidime, ceftazidime] | 4 µg/mL (≈ 7.32 µM)
